In assay [1] the target is Phosphatidylinositol 4,5-bisphosphate 3-kinase catalytic subunit beta isoform (Homo sapiens, UniProt P42338). The assay can be described thus: (§1) Biochemical Assay: PI3K Isoform using biochemical assay.
For assay [2], the target named is T1, Phosphatidylinositol 4,5-bisphosphate 3-kinase catalytic subunit delta isoform (Homo sapiens, UniProt O00329).
T1 sequence (O00329 whole entry): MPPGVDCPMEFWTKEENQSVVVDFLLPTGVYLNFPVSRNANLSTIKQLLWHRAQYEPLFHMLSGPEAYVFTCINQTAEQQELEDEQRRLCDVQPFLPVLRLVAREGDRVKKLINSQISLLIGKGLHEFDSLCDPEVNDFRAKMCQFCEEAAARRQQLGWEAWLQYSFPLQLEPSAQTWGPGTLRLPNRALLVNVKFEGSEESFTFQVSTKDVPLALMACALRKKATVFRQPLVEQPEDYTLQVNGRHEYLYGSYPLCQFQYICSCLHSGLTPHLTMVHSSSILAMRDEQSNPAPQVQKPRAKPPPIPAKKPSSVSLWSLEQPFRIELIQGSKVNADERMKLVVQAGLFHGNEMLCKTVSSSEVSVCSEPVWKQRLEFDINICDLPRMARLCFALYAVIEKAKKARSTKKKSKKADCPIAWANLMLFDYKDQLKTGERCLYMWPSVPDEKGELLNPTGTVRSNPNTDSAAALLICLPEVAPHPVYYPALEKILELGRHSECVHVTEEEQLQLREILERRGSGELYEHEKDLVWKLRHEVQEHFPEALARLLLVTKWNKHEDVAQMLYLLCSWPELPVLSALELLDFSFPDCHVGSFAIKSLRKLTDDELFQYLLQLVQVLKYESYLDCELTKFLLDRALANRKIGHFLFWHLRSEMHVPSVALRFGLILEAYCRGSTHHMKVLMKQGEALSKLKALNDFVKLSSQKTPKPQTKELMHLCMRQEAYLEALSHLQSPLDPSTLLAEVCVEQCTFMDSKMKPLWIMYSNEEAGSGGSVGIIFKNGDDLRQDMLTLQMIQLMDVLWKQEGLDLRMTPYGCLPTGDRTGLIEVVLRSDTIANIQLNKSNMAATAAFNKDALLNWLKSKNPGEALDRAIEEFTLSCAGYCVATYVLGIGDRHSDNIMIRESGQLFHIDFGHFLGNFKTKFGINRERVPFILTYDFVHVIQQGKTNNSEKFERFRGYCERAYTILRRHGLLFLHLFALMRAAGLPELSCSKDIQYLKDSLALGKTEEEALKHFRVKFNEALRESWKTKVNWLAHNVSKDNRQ
The assay is described as §1.

Assay [3] deals with Phosphatidylinositol 4,5-bisphosphate 3-kinase catalytic subunit alpha isoform (Homo sapiens, UniProt P42336). Described as §1.
The target of assay [4] is Phosphatidylinositol 4,5-bisphosphate 3-kinase catalytic subunit gamma isoform (Homo sapiens, UniProt P48736). The assay is described as §1.
Phosphatidylinositol 4,5-bisphosphate 3-kinase catalytic subunit gamma isoform, sequence (P48736 whole entry, canonical isoform): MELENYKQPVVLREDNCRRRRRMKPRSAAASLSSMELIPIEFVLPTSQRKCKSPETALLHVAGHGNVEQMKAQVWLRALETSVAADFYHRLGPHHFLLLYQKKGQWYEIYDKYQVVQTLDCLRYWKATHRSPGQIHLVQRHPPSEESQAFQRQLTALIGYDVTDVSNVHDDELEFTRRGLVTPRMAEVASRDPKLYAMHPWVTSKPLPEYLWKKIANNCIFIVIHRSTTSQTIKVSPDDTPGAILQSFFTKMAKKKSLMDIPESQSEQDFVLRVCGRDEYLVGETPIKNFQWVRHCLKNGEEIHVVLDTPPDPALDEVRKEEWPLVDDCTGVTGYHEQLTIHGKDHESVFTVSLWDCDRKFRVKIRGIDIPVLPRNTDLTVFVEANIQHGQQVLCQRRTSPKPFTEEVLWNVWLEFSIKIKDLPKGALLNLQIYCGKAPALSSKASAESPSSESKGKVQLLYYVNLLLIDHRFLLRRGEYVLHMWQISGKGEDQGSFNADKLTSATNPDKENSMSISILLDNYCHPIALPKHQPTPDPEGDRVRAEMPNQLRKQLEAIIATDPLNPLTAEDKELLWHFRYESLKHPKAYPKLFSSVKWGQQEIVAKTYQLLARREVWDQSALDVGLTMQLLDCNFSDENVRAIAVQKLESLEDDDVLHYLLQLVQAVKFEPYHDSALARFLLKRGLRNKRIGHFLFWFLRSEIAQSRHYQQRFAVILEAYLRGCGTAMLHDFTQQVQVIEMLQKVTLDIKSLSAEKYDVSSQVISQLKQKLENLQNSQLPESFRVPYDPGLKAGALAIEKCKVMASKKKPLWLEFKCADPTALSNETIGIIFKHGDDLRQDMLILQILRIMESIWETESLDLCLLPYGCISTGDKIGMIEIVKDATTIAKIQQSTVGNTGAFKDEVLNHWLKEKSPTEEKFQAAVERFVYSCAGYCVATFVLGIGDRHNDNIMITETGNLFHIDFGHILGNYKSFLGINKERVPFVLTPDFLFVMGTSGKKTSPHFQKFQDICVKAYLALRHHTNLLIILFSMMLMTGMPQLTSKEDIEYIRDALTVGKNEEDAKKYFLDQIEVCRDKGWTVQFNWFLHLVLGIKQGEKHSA

Phosphatidylinositol 4,5-bisphosphate 3-kinase catalytic subunit beta isoform, sequence (P42338 whole entry, canonical isoform): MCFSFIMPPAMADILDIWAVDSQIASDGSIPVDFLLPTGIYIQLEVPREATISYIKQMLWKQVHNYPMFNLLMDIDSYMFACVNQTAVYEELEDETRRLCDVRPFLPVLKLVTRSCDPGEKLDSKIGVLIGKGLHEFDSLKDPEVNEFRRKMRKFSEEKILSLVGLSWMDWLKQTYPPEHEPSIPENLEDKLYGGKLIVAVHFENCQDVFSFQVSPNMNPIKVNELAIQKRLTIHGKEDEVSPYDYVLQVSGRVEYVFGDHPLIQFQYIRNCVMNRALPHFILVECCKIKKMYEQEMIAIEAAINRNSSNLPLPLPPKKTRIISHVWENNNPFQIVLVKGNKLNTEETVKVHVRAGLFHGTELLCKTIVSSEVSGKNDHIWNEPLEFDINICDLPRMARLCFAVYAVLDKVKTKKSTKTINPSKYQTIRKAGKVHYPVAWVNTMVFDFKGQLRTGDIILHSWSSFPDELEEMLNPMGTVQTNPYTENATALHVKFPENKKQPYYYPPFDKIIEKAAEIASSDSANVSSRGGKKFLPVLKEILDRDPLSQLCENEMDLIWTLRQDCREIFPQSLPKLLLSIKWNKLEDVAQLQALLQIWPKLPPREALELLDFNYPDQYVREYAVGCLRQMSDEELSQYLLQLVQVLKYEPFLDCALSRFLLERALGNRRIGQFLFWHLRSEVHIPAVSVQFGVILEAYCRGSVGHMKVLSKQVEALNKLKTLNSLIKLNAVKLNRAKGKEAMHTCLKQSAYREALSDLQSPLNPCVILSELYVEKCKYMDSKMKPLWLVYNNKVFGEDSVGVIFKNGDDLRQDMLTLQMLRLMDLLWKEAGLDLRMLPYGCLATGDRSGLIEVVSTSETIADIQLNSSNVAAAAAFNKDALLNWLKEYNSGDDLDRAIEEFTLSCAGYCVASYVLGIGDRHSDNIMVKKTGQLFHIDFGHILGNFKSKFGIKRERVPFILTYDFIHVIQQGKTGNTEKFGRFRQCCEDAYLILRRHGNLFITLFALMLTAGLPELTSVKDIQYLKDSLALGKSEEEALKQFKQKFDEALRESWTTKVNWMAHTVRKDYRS
Phosphatidylinositol 4,5-bisphosphate 3-kinase catalytic subunit alpha isoform, sequence (P42336 whole entry, canonical isoform): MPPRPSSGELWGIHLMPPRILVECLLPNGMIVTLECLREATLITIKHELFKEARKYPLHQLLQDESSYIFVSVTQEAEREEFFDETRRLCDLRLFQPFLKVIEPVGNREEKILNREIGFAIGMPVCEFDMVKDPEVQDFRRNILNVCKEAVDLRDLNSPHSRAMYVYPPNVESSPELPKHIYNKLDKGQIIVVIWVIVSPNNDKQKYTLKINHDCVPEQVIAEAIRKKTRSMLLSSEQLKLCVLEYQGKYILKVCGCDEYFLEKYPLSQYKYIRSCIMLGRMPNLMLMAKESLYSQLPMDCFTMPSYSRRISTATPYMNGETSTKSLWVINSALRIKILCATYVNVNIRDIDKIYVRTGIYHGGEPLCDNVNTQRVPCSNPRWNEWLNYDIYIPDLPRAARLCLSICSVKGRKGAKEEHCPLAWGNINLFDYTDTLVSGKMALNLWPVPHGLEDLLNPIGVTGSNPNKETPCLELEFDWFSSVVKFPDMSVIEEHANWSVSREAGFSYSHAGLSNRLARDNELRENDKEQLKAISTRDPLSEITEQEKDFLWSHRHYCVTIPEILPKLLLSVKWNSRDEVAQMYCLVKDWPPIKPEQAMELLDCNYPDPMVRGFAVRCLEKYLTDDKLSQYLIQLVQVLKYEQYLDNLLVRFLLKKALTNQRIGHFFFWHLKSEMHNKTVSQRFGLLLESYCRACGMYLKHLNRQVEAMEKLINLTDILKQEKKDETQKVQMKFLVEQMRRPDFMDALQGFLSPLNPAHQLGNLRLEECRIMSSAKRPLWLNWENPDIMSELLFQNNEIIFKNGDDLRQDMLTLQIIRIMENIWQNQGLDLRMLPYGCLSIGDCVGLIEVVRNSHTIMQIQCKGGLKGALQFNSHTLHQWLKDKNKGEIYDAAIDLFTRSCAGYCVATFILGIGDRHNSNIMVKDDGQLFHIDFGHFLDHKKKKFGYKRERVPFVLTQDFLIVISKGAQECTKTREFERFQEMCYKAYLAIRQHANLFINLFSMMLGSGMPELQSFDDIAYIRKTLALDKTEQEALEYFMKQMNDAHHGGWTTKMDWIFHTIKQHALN

For orientation: IC50 means the concentration that gives 50% inhibition. Read a high IC50 as a need for much substance. With `c1cc(-c2nc(N3CCOCC3)c3oc4ncc(CN5CCCCC5)cc4c3n2)c2cc[nH]c2c1`, the IC50 in assay [1] was determined as 503 nM; in assay [2] it was 10 nM; in assay [3], 508 nM; in assay [4], 4950 nM.

Source of the values: ChEMBL document CHEMBL5725788, “Tricyclic heterocyclic compounds as phosphoinositide 3-kinase inhibitors” (2017).
